# Experiments:
# C57/Bl6 mice = experiment: plasma miRNA levels in lean mice after a single injection; type: in vivo, mouse; conditions: C57/Bl6 mice (FIG. 5 legend)
# Experimental: The plasma levels of miR-132 and miR-212 were measured in lean mice treated with an oxyntomodulin (OXM) derivative (a long-acting GLP-1 receptor agonist disclosed in Published International Application No. WO2007/100535) before and then 24-hours and 48-hours after a single injection of the OXM derivative. Groups of 16 weeks old mice were dosed with 30 mpk OXM derivative (s.c.) or vehicle (3% mannitol, 75 mM NaCl, 20 mM sodium acetate, pH 5) and approximately 50 μL blood each were collected into EDTA tubes before and 24 hours and 48 hours post-dosing. All the blood samples were immediately placed on ice and plasma were prepared within one hour and stored at −80° C. RNA extraction and TAQMAN RT-PCR analysis were as described in Example 3. 50 μL aliquots of the plasma samples were thawed on ice and 2× Denaturing Solution (Ambion) was added. To allow for normalization for sample variations, three C. elegans miRNAs, cel-miR39, cel-miR54, and cel-miR-238, were added at a final concentration of 20, 200, and 2000 fM (sequence information according to miRBase). miR132, miR-212, and miR-375 expression levels were normalized to spiked-in cel-miR39.
# INS-1 832/13 cells = experiment: TAQMAN analysis of miRNA expression in INS-1 832/13 cells; type: cell-based, rat; conditions: 24 hours post-GLP-1 treatment
# Experimental: INS-1 832/3 and 832/13 cells were maintained in RPMI 1640 with 10% FBS and 11 mM glucose. For GLP-1 treatment, GLP-1 (7-37) amide (ABCHEM) was added in the media in the presence of 16 mM glucose for 24 hours. Total RNA was extracted with TRIZOL as in Example 1. Rat islet isolation and treatment was as follows. Pancreatic islets of Langerhans were isolated from the pancreas of normal Sprague-Dawley rats (Charles River, Ind.) by collagenase digestion and discontinuous Ficoll gradient separation (15). Islets were cultured for 2 hours in RPMI 1640 medium with 11 mM glucose for recovery from the isolation process. Then 100-200 islets were treated with 50 nM GLP-1 in the media with 11 mM glucose for 24 hours. RNA was extracted with TRIZOL as in Example 1 for quantification of microRNA species.
# Fluorogenic TAQMAN detector probes specific for miR-132 (Cat# TM457), miR-212 (Cat# TM515), miR-375 (Cat#TM564), and miR-217 (Cat#1133) were purchased from Applied Biosystems (Foster City, Calif.). […]
# Relative miRNA levels for the miRNAs of interest were determined by real-time reverse transcription reaction using the ABI PRISM 7900 Sequence Detection System from Applied Biosystems (Foster City, Calif.) according to the manufacturer's protocol. […] Data were collected and analyzed with SDS v.2.2.2 software (Applied Biosystems). […]
# INS-1 832/3 cells = experiment: glucose dependent insulin secretion (GDIS) assay in INS-1 832/3 cells; type: cell-based, rat; conditions: 16 mM glucose, two-hour incubation in KRB
# Description: We overexpressed the precursors of miR-132 and miR-212 to evaluate their possible contribution to β-cell function. MicroRNA miR-375 was included as a control as it been reported to have an inhibitory effect on GDIS (Poy et al., Nature 432: 226-230 (2004)). Chemically modified Pre-miR™ miRNA precursor molecules and Anti-miR™ miRNA inhibitors were purchased from Ambion (Foster City, Calif.). miRCURY LNA™ microRNA knockdown oligonucleotides were purchased from Exiqon (Woburn, Mass.). The oligonucleotide molecules were delivered to the cells by the Nucleofector Device (Amaxa, Gaithersburg, Md.). In brief, INS-1 cells were trypsinized, centrifuged, and resuspended in 100 μl Nucleofector solution V. Then 100-500 pmole RNA oligonucleotides were transfected to 3-million cells at the concentration of 1-5 μM with the Amaxa Nucleofector Device. Scramble controls from the vendors were used with the same transfection method. After electroporation, the cells were transferred to regular culture medium and then split into replicates in 96-well plates. Insulin secretion assay or LANCE cAMP assay were performed 48 hours post electroporation.
# INS-1 cell glucose dependent insulin secretion (GDIS) assay was performed as follows. The GDIS assay was performed with cells grown to near confluency in 96-well plates. Prior to the assay, cells were washed once with PBS and pre-incubated for two hours in freshly prepared Krebs-Ringer Bicarbonate (KRB) medium without glucose. The medium were then replaced with KRB with 2, 8 or 16 mM glucose or along with 10 nM GLP-1. The cells were incubated for another two hours in a CO2 incubator. The media was then removed at the end of incubation, and assayed for insulin levels by Ultra-sensitive Rat Insulin ELISA kit (ALPCO, Salem, N.H.) or insulin immunoassay by Gyrolab workstation (GYROS AB, Uppsala, Sweden). Intracellular insulin was extracted by acid ethanol method for measuring intracellular insulin content. Total protein was measured by Pierce 660 nm Protein Assay from Pierce Biotechnology, Inc. (Rockford, Ill.).
substance,measurement,setting,value
GLP-1 (7-37) amide,plasma levels of miR-132,C57/Bl6 mice,increased
same,plasma levels of miR-212,C57/Bl6 mice,increased
same,increase of miR-132 expression in response to GLP-1,INS-1 832/13 cells,not observed
same,increase of miR-212 expression in response to GLP-1,INS-1 832/13 cells,not observed
same,increase of insulin secretion upon treatment with GLP-1,INS-1 832/3 cells,greater than 300%
